Measured values published in patent US20140114067A1, “BENZIMIDAZOLE DERIVATIVES AS MITOCHONDRIAL FUNCTION MODULATORS” (KOREA INSTITUTE OF SCIENCE AND TECHNOLOGY, priority 2012, published 2014).

Experiments:
[1] = system: HT-22 cells; assay: Recovery of ATP production capability reduced by amyloid beta (luciferin/luciferase); assay type: cell-based; conditions: compound 5 μM, amyloid beta 5 μM, 7 hours, amyloid beta vehicle control without drug = 0%
Experimental: (§1) Meanwhile, the compound represented by Formula 1 according to the present invention is evaluated through a test to determine recovery of mitochondrial functions damaged by amyloid beta, as described in the following Test Example. After the test, the results are shown in terms of the percentages of mitochondrial function disorder caused by amyloid beta. The degree of mitochondrial function disorder caused by amyloid beta is taken as 0% and the normal condition in the absence of amyloid beta is shown as 100%.
To a transparent 96-well plate, HT-22 cells are inoculated in a number of 10,000 per well one day before the test, followed by treatment with each compound to a final concentration of 5 μM per well. The cells are cultured at 37° C. for 10 minutes. Particularly, for each drug, two wells are treated with amyloid beta (5 μM) and the other two wells are treated with the vehicle control (5 μM DMSO). After the treatment, the cells are cultured at 37° C. for 7 hours. The cells treated with each drug are washed twice with PBS, lysed with Triton X-100 (1% in TSBT buffer) and agitated at room temperature for 5 minutes. […] is used to determine the protein amount of each well, and the same amount of protein taken from each well is added to a white 96-well plate. Then, […] (Molecular Probe, USA) for ATP determination containing d-luciferin and luciferase is added thereto and emission peaks generated from each of the wells are determined. After the determination, the peaks are normalized by taking the vehicle control to which amyloid beta is added without treatment with any drug as 0%.

[2] = system: HT-22 cells; assay: Improvement in mitochondrial membrane potential dropped by amyloid beta (JC-1 dye); assay type: cell-based; conditions: compound 5 μM, amyloid beta 5 μM, 3 hours, JC-1 green:red ratio, amyloid beta damage = 0%, normal = 100%
Experimental: as §1
To a transparent 96-well plate, HT-22 cells are inoculated in a number of 30,000 per well one day before the test. On the next day, JC-1 dye (Stratagen, USA) is diluted with Opti-MEM containing no phenol red to a concentration of 7.5 μM, and the resultant dilution is used to treat the cells for 1 hour and 15 minutes. The dyed cells are washed twice with phosphate buffer solution (PBS), followed by treatment with each compound to a final concentration of 5 μM per well. Then, the cells are cultured at 37° C. for 10 minutes. Particularly, for each drug, two wells are treated with amyloid beta (5 μM) and the other two wells are treated with the vehicle control (5 μM DMSO). Then, the cells are cultured at 37° C. for 3 hours. The fluorescence intensity of each well is read by using a fluorescence plate reader at 485/535 nm (green/J-monomer) and 560/595 nm (red/J-aggregate). Then, the ratio of green:red is calculated and the results are normalized by taking the change of the ratio between addition of amyloid beta and no-addition of amyloid beta in the vehicle control non-treated with drugs as 100%.

Structure (SMILES) | ATP Production Capability Recovery (%) (5 μM) [1] | Improvement in Membrane Potential (%) (5 μM) [2]
Cc1cccc(C(C)(C)C)c1NC(=O)Cn1c(-c2ccccc2)nc2ccccc21 [Compound 16, N-(2-tert-butyl-6-methylphenyl)-2-(2-phenyl-1H-benzo[d]imidazol-1-yl)acetamide] | 55% | 65%
Cc1ccc(C(C)C)cc1NC(=O)Cn1c(-c2cc(Cl)ccc2Cl)nc2ccc(Cl)cc21 [Compound 25, 2-(6-chloro-2-(2,5-dichlorophenyl)-1H-benzo[d]imidazol-1-yl)-N-(5-isopropyl-2-methylphenyl)acetamide] | 69% | 87%
Cc1ccc(C(C)C)cc1NC(=O)Cn1c(Cc2c(Cl)cccc2Cl)nc2ccccc21 [Compound 23, 2-(2-(2,6-dichlorobenzyl)-1H-benzo[d]imidazol-1-yl)-N-(5-isopropyl-2-methylphenyl)acetamide] | 95% | 74%
CCN1CCCC1CNC(=O)c1ccc(Cn2c(Cc3c(Cl)cccc3Cl)nc3ccccc32)cc1 (stereo not shown) [Compound 32, 4-((2-(2,6-dichlorobenzyl)-1H-benzo[d]imidazol-1-yl)methyl)-N-((1-ethylpyrrolidin-2-yl)methyl)benzamide] | 51% | 90%
O=C(NCCCN1CCCCC1)c1ccc(Cn2c(Cc3c(Cl)cccc3Cl)nc3ccccc32)cc1 [Compound 37, 4-((2-(2,6-dichlorobenzyl)-1H-benzo[d]imidazol-1-yl)methyl)-N-(3-(piperidin-1-yl)propyl)benzamide] | 64% | 90%
CN(C)CCCNC(=O)c1ccc(Cn2c(Cc3c(Cl)cccc3Cl)nc3ccccc32)cc1 [Compound 34, 4-((2-(2,6-dichlorobenzyl)-1H-benzo[d]imidazol-1-yl)methyl)-N-(3-(dimethylamino)propyl)benzamide] | 85% | 82%
COc1ccc(OC)c(Cc2nc3ccccc3n2CC(=O)Nc2cc(Cl)cc(Cl)c2)c1 [Compound 18, N-(3,5-dichlorophenyl)-2-(2-(2,5-dimethoxybenzyl)-1H-benzo[d]imidazol-1-yl)acetamide] | 94% | 68%
COc1ccc(OC)c(Cc2nc3ccccc3n2CC(=O)Nc2cc(C(C)(C)C)cc(C(C)(C)C)c2)c1 [Compound 17, N-(3,5-di-tert-butylphenyl)-2-(2-(2,5-dimethoxybenzyl)-1H-benzo[d]imidazol-1-yl)acetamide] | 46% | 54%
